Results as given in patent US7087626B2, “Pyrrole derivatives as pharmaceutical agents” (Eli Lilly and Company, priority 2001, dated 2006).

Legend:
[1] = test system: TGF-β dependent luciferase production in Mv1Lu C1 cells (p3TP-Lux reporter); experiment: MV1LU p3TP-Lux assay; format: cell-based; details: TGF-β1 10 pM, 16-20 hrs
Source text: A stable Mv1Lu clone (C1) containing the p3TP-Lux reporter was created by standard transfection and puromycin selection protocols. This stable clone was used to screen the example compounds for their ability to inhibit TGF-β dependent luciferase production as briefly described below: • 1. Plated Mv1Lu C1 cells in Wallac™ Black Isoplates • 2. Allowed cells to adhere overnight. • 3. Removed media and replaced with 0.5% FBS DMEM media • 4. Added the compound dilution series in 0.5% FBS/DMEM containing 1% DMSO such that the final compound concentration ranged from 20 uM to 0.1 nM and the final DMSO concentration was 0.2%. • 5. Incubated at 37° C./5% CO2 for 2 hrs. • 6. Added 0.5% FBS/DMEM as control or TGF-β1 diluted in 0.5% FBS/DMEM (final concentration of 10 pM) to the −/+ TGF-β wells respectively • 7. Incubated for 16-20 hrs. at 37° C./5% CO2 • 8. Removed media and rinsed 1× with PBS. • 9. Removed PBS and lysed the cells with 1× Passive Lysis Buffer (Promega) at room temperature. • 10. Counted relative luciferase activity on the MicroBeta JET by injecting Luciferase Assay Reagent II (PROMEGA).
The use of the above assay in measuring TGF-β responsive activity is described in Wrana, et al. Cell 71: 1003-1014 (1992).

p38α/SAPK2α = target: T1, p38α/SAPK2α (Homo sapiens, UniProt Q16539); experiment: p38α in vitro kinase assay; format: biochemical; details: 5 nM p38α, 62.5 uM EGFR substrate, 100 uM ATP, 30° C., 40 min
T1 construct: purchased Upstate Biotechnology 14-251
T1 sequence (Q16539 whole entry): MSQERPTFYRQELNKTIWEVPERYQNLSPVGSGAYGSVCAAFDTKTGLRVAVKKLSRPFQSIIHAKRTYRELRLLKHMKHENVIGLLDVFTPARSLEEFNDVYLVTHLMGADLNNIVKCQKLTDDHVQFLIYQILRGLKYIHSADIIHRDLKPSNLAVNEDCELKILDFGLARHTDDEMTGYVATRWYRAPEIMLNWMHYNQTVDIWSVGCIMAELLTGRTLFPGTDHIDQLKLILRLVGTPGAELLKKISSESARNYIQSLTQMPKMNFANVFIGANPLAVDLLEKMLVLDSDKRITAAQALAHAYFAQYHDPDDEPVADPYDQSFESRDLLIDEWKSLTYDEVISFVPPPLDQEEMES
Procedure: p38α in vitro Kinase Assay
Active p38α/SAPK2α was purchased from Upstate Biotechnology (cat#14-251). A known p38α substrate from EGFR was used in the assay (Young, et al. (1997) JBC 272: 12116-12121).
Reactions were performed in 1× kinase buffer (25 mM Tris-HCl pH 7.5, 5 mM β-glycerophosphate, 2 mM DTT, 0.1 mM Na3VO4, 10 mM MgCl2, 1 uM Microcystin) with 5 nM p38α, 62.5 uM substrate, 40 uM to 0.2 nM compound dilution series in 1×KB/16% DMSO (final 4% DMSO concentration). Reactions were started by addition of 100 uM ATP (final concentration) with 1 uCi ^33P-γ-ATP in 1×KB and incubated at 30° C. for 40 min. Reactions were stopped with H3PO4 and quantitated on Millipore PH phosphocellulose filter plates by liquid scintillation counting on a MicroBeta JET.

[2] = target: T2, TGF-β Type II (RII WT) receptor (Homo sapiens, UniProt P37173); experiment: TGF-β Receptor II (RII WT) in vitro kinase reaction; format: biochemical; details: 6×-HIS cytoplasmic kinase domain, 4 uM ATP, 30° C., 40 min
T2 construct: The 6×-HIS tagged cytoplasmic kinase domain of each receptor was expressed and purified from Sf9 insect cell lysates; 6xHis; made in house; host or cells: Sf9 insect cells
T2 sequence (P37173 244-544 limits assumed): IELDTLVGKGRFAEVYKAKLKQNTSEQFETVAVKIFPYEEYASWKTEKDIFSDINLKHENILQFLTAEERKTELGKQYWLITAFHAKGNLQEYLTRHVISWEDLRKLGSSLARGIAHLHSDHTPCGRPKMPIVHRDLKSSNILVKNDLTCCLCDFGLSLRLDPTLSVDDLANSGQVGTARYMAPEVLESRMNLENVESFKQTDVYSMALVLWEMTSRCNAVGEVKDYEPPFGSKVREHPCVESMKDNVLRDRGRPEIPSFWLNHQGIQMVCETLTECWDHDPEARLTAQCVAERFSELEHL
Procedure: (§1) TGF-β Receptor I and II Purification and in vitro Kinase Reactions
(§2) For TGF-β Type I (RIT204D) and Type II (RII WT) Receptors: The 6×-HIS tagged cytoplasmic kinase domain of each receptor was expressed and purified from Sf9 insect cell lysates as briefly described below:
(§3) Cell pellets after 48-72 hrs of infection were lysed in lysis buffer (LB: 50 mM Tris pH 7.5, 150 mM NaCl, 50 mM NaF, 0.5% NP40 with freshly added 20 mM, β-mercaptoethanol, 10 mM imidazole, 1 mM PMSF, 1×EDTA-free Complete Protease Inhibitor (Boehringer Mannheim).
Cell lysates were clarified: by centrifugation and […] filtered prior to purification by Ni/NTA affinity chromatography (Qiagen).
Equilibrate with 10 CV of LB, load sample, wash with 10 CV RIPA buffer (50 mM Tris pH 7.5, 150 mM NaCl, 1% NP40, 1 mM EDTA, 0.25% sodium deoxycholate, added fresh 20 mM β-mercaptoethanol, 1 mM PMSF), wash with 10 CV LB, wash with 10 CV 1×KB (50 mM Tris pH 7.5, 150 mM NaCl, 4 mM MgCl2, 1 mM NaF, 2 mM β-mercaptoethanol), elute with a linear gradient of 1×KB containing 200 mM Imidazole.
Both enzymes were approximately 90% pure and had autophosphorylation activity.
(§4) Reactions: 170-200 nM enzyme in 1×KB, compound dilution series in 1×KB/16% DMSO (20 uM to 1 nM final concentration with 4% DMSO final concentration), reactions started by adding ATP mix (4 uM ATP/1 uCi ^33P-[…]-ATP final concentrations) in 1×KB.
(§5) Reactions were incubated at 30° C. for 1 hr RIT204D or 40 min for RII WT. Reactions were stopped and quantitated using standard TCA/BSA precipitation onto Millipore FB glass fiber filter plates and by liquid scintillation counting on a MicroBeta JET.

[3] = target: T3, TGF-β Type I (RIT204D) receptor (Homo sapiens, UniProt P36897, T204D); experiment: TGF-β Receptor I (RIT204D) in vitro kinase reaction; format: biochemical; details: 6×-HIS cytoplasmic kinase domain, 4 uM ATP, 30° C., 1 hr
T3 construct: The 6×-HIS tagged cytoplasmic kinase domain of each receptor was expressed and purified from Sf9 insect cell lysates; 6xHis; made in house; host or cells: Sf9 insect cells
T3 sequence (P36897 148-503 T204D limits assumed): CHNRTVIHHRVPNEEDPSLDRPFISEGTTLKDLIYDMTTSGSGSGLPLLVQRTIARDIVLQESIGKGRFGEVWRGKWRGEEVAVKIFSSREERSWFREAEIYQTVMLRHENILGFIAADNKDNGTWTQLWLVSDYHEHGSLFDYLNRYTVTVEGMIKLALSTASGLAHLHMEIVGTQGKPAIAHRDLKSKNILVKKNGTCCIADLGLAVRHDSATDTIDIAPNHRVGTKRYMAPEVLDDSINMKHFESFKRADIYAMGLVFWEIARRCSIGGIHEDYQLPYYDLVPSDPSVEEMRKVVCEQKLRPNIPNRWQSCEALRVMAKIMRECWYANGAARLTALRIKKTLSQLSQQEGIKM
Procedure: as §1, §2, §3, §4, §5

Row | IC50 [1] [µM] | IC50 (p38α/SAPK2α) [µM] | SMILES | further results
1 | < 20 | – | Cc1cccc(-c2nn3c(c2-c2ccnc4ccccc24)CC(c2ccc(F)cc2)C3)n1 (single isomer, unassigned) [4-[5-(4-Fluoro-phenyl)-2-(6-methyl-pyridin-2-yl)-5,6-dihydro-4H-pyrrolo[1,2-b]pyrazol-3-yl]-quinoline] | –
2 | < 20 | – | Cc1cccc(-c2nn3c(c2-c2ccc(F)cc2)CC(c2ccc(Cl)cc2)C3)n1 (centres unmarked) [5-(4-Chloro-phenyl)-3-(4-fluoro-phenyl)-2-(6-methyl-pyridin-2-yl)-5,6-dihydro-4H-pyrrolo[1,2-b]pyrazole] | –
3 | – | < 20 | Cc1cccc(-c2nn3c(c2-c2ccnc4ccc(-c5ccc(F)cc5)cc24)CCC3)n1 [6-(4-Fluoro-phenyl)-4-[2-(6-methyl-pyridin-2-yl)-5,6-dihydro-4H-pyrrolo[1,2-b]pyrazol-3-yl]-quinoline] | –
4 | – | < 20 | CSc1ccc2nccc(-c3c(-c4ccccn4)nn4c3CCC4)c2c1 [6-Methylsulfanyl-4-(2-pyridin-2-yl-5,6-dihydro-4H-pyrrolo[1,2-b]pyrazol-3-yl)-quinoline] | –
5 | – | < 20 | c1ccc(-c2nn3c(c2-c2ccnc4cc(OCCCn5ccnc5)ccc24)CCC3)nc1 [7-(3-Imidazol-1-yl-propoxy)-4-(2-pyridin-2-yl-5,6-dihydro-4H-pyrrolo[1,2-b]pyrazol-3-yl)-quinoline] | –
6 | – | < 20 | Cc1cccc(-c2nn3c(c2-c2ccnc4cc(N)ccc24)CCC3)n1 [7-Amino-4-[2-(6-Methyl-pyridin-2-yl)-5,6-dihydro-4H-pyrrolo[1,2-b]pyrazol-3-yl]-quinoline] | –
7 | – | < 20 | COc1ccc2c(-c3c(-c4ccccn4)nn4c3CCC4)ccnc2c1 [7-Methoxy-4-(2-pyridin-2-yl-5,6-dihydro-4H-pyrrolo[1,2-b]pyrazol-3-yl)-quinoline] | –
8 | – | < 20 | CN1CCN(CCCOc2ccc3c(-c4c(-c5ccccn5)nn5c4CCC5)ccnc3c2)CC1 [7-[3-(4-Methyl-piperazin-1-yl)-propoxy]-4-(2-pyridin-2-yl-5,6-dihydro-4H-pyrrolo[1,2-b]pyrazol-3-yl)-quinoline] | –
9 | – | < 20 | Cc1cccc(-c2nn3c(c2-c2ccc(F)cc2)CC[C@@H]3CC#N)n1 [(R)-[3-(4-Fluoro-phenyl)-2-(6-methyl-pyridin-2-yl)-5,6-dihydro-4H-pyrrolo[1,2-b]pyrazol-6-yl]-acetonitrile] | –

Continued, compound first:

Row | SMILES | IC50 [1] [µM] | IC50 (p38α/SAPK2α) [µM] | further results
10 | Cc1cccc(-c2nn3c(c2-c2cccc4ccccc24)CCC3)n1 [2-(6-methyl-pyridin-2-yl)-3-naphthalen-1-yl-5,6-dihydro-4H-pyrrolo[1,2-b]pyrazole] | < 20 | – | –
11 | CN(C)CC(=O)Nc1ccc2c(-c3c(-c4ccccn4)nn4c3CCC4)ccnc2c1 [2-Dimethylamino-N-[4-(2-pyridin-2-yl-5,6-dihydro-4H-pyrrolo[1,2-b]pyrazol-3-yl)-quinolin-7-yl]-acetamide] | – | < 20 | –
12 | Cc1cccc(-c2nn3c(c2-c2ccnc4ccc(C(C)(C)O)cc24)CCC3)n1 [2-{4-[2-(6-Methyl-pyridin-2-yl)-5,6-dihydro-4H-pyrrolo[1,2-b]pyrazol-3-yl]-quinolin-6-yl}-propan-2-ol] | < 20 | – | –
13 | Clc1cc(-c2c(-c3ccccn3)nn3c2CCC3)ccn1 [3-(2-Chloro-pyridin-4-yl)-2-pyridin-2-yl-5,6-dihydro-4H-pyrrolo[1,2-b]pyrazole] | < 20 | – | –
14 | Cc1cccc(-c2nn3c(c2-c2ccc4c(c2)OCO4)CCC3)n1 [3-Benzo[1,3]dioxol-5-yl-2-(6-methyl-pyridin-2-yl)-5,6-dihydro-4H-pyrrolo[1,2-b]pyrazole] | – | < 20 | –
15 | c1ccc(-c2nn3c(c2-c2ccc4ccccc4c2)CCC3)nc1 [3-Naphthalen-2-yl-2-pyridin-2-yl-5,6-dihydro-4H-pyrrolo[1,2-b]pyrazole] | – | < 20 | –
16 | OCCCSc1ccc2c(-c3c(-c4ccccn4)nn4c3CCC4)ccnc2c1 [3-[4-(2-Pyridin-2-yl-5,6-dihydro-4H-pyrrolo[1,2-b]pyrazol-3-yl)-quinolin-7-ylsulfanyl]-propan-1-ol] | – | < 20 | IC50 [2]: < 20 µM
17 | CNC(=O)c1ccc2c(-c3c(-c4ccccn4)nn4c3CCC4)ccnc2c1 [4-(2-Pyridin-2-yl-5,6-dihydro-4H-pyrrolo[1,2-H]pyrazol-3-yl)-quinoline-7-carboxylic acid methylamide] | – | < 20 | IC50 [2]: < 20 µM; IC50 [3]: < 20 µM
18 | NNC(=O)c1ccc2nccc(-c3c(-c4ccccn4)nn4c3CCC4)c2c1 [4-(2-Pyridin-2-yl-5,6-dihydro-4H-pyrrolo[1,2-b]pyrazol-3-yl)-quinoline-6-carboxylic acid hydrazide] | < 20 | – | –
19 | O=C(NCCc1c[nH]cn1)c1ccc2c(-c3c(-c4ccccn4)nn4c3CCC4)ccnc2c1 [4-(2-Pyridin-2-yl-5,6-dihydro-4H-pyrrolo[1,2-b]pyrazol-3-yl)-quinoline-7-carboxylic acid [2-(1H-imidazol-4-yl)-ethyl]-amide] | – | < 20 | –
20 | OCC1CCc2c(-c3ccnc4ccccc34)c(-c3ccccn3)nn21 (centres unmarked) [4-(6-Hydroxymethyl-2-pyridin-2-yl-5,6-dihydro-4H-pyrrolo[1,2-b]pyrazol-3yl)-quinoline] | < 20 | – | –
21 | Fc1ccc(-c2nn3c(c2-c2ccnc4ccccc24)CCC3)cc1 [4-[2-(4-Fluoro-phenyl)-5,6-dihydro-4H-pyrrolo[1,2-b]pyrazol-3-yl]-quinoline] | – | < 20 | –
22 | COC(=O)c1ccc2nccc(-c3c(-c4cccc(C)n4)nn4c3CCC4)c2c1 [4-[2-(6-Methyl-pyridin-2-yl)-5,6-dihydro-4H-pyrrolo[1,2-b]pyrazol-3-yl]-quinoline-6-carboxylic acid methyl ester] | < 20 | – | –
23 | Cc1cccc(-c2nn3c(c2-c2ccnc4ccc(C(=O)O)cc24)CCC3)n1 [4-[2-(6-Methyl-pyridin-2-yl)-5,6-dihydro-4H-pyrrolo[1,2-b]pyrazol-3-yl]-quinoline-6-carboxylic acid] | – | < 20 | –
